# From US20260285801A1, “LIPID NANOPARTICLE FOR TARGETED DELIVERY OF THERAPEUTIC PAYLOADS” (Trustees of Tufts College, priority 2023, published 2026)
# Key:
# [1] = LNP size and polydispersity index by dynamic light scattering (Zetasizer Nano ZS); type: physicochemical; conditions: LNP with mRNA payload formulated with the lipid; active lipid/Cholesterol/DOPC/DMG-PEG 16.8/4.0/2.0/1.0; Lipids:mRNA 25:1; PBS pH 7.4, 25° C.
# Experimental: (§1) RNA working solutions (0.134 mg/ml) were prepared in 25 mM sodium acetate buffer using DNase/RNase-free distilled water. Lipid stock solutions (10 mg/mL) were freshly prepared with active lipids or helper lipids (e.g., cholesterol, DOPC or DSPC, or ALC-0159) in ethanol. Reagents were mixed by vortexing and sonicating until the lipids were completely dissolved. A lipid mixture was first prepared by combining the active lipids (e.g., ionizable lipids of the present disclosure) and helper lipids into one vial and mixing thoroughly. Lipid nanoparticles were then formed by mixing the RNA working solution (0.134 mg/ml) and the lipid mixture at 3:1 volume ratio, either manually (for smaller scale) or by Precision Igniter microfluidic device. The formulation solution was transferred into a 300 kDa MWCO Float-A-Lyzer G2 Dialysis Device and dialyzed against at least 1000-folds volume of 50 mM Tris buffer overnight at 4° C. The LNP solution was sterilized with a 0.22 μm filter.
# (§2) For LNP characterization, size and polydispersity index (PDI) were determined by dynamic light scattering using a Zetasizer Nano ZS. 10 μL of LNP suspension was transferred to a low-volume cuvette containing 900 μL of Ca^2+ and Mg^2+ free PBS at pH 7.4. Refractive index was set to […] and temperature was set to 25° C. Encapsulation efficiency (EE %) was measured using a fluorescence plate-based assay employing the Ribogreen reagent (Invitrogen) as per PNI Ribogreen assay protocol 16. This assay measures the quantity of mRNA in samples with intact LNPs to determine the quantity of unencapsulated RNA as well as in LNP samples disrupted by triton X-100 to measure the total RNA. EE % is calculated as the difference between the total RNA and the unencapsulated RNA divided by the total RNA.
# [2] = Encapsulation efficiency and mRNA quantity by Ribogreen fluorescence plate assay; type: physicochemical; conditions: LNP with mRNA payload formulated with the lipid, 16.8/4.0/2.0/1.0, Lipids:mRNA 25:1; for EE %: (total RNA - unencapsulated RNA)/total RNA
# Experimental: as §1, §2
# female adult BALB/c mice = experiment: IV injection of Luc mRNA/LNP, whole body bioluminescence by IVIS imaging; type: in vivo; conditions: single i.v., 5 μg mRNA, 6 hours post injection; for delivery of the luciferase mRNA to the liver in vivo (luciferase intensity, IVIS): LNPs of L88, L854, L855 compared, FIGS. 4A-5B
# Experimental: All animal experiments were conducted in accordance with the approved animal protocols. LNPs were formulated with lipids and mRNA encoding Luciferase (Luc) based on TABLE 3. LNPs comprising 5 μg mRNA and 50 μg active lipids (e.g., ionizable lipids) were injected intravenously (i.v.) to female adult BALB/c mice (6-8 wk. old). Six hours post injection, 100 μL of luciferin K salt (15 mg/mL in PBS) was administered to the mice through intraperitoneal injections. The mice were then imaged using the In Vivo Imaging System (IVIS) and the total flux of areas of interest was quantified. FIGS. 2A-2G illustrate representative IVIS data using the LNPs formulated with active lipids from TABLE 4. […] FIGS. 4A-7B show further analysis of the IVIS results. In FIGS. 4A-4B and FIGS. 5A-5B, the lipid nanoparticles were formulated with luciferase mRNA and lipids L88, L854, and L855, respectively. The experiment was conducted in duplicates. […] Existing lipid formulations in the industry were used as controls in the experiment. For example, lipids provided herein were compared to ALC-0315 (Pfizer) and SM-102 (Moderna).
Structure (SMILES),PDI [1],Size (nm) [1],[mRNA] Ug/ml [2],EE % [2],"delivery of the luciferase mRNA to the liver in vivo (luciferase intensity, IVIS) (female adult BALB/c mice)",luciferase mRNA delivery to the liver compared to ALC-0315 (female adult BALB/c mice; FIGS. 6A-6B),luciferase mRNA delivery compared to SM-102 (female adult BALB/c mice; FIGS. 7A-7B)
CCCCCCC(CCCC)COC(=O)CCOC(=O)CCN(CCCN(C)CCCN(CCC(=O)OCCC(=O)OCC(CCCC)CCCCCC)CCC(=O)OCCC(=O)OCC(CCCC)CCCCCC)CCC(=O)OCCC(=O)OCC(CCCC)CCCCCC (stereo not drawn) [Lipid L0854],0.098,120.3 nm,77.7 Ug/ml,94.6%,more efficient delivery of the luciferase mRNA to the liver,more luciferase mRNA delivery to the liver than ALC-0315,
CC(C)CCCCCCSSCCOC(=O)CCN(CCCn1ccnc1)CCC(=O)OCCSSCCCCCCC(C)C [Lipid L0645],0.106,161 nm,90 Ug/ml,74.2%,,,
CCCCCCC(CCCC)COC(=O)OCCOC(=O)CCN(CCCN(C)CCCN(CCC(=O)OCCOC(=O)OCC(CCCC)CCCCCC)CCC(=O)OCCOC(=O)OCC(CCCC)CCCCCC)CCC(=O)OCCOC(=O)OCC(CCCC)CCCCCC (stereo not drawn) [Lipid L0088],0.087,153.9 nm,69.7 Ug/ml,85.2%,,,
CC(C)CCCCCCSSCCOC(=O)CCN(CCCN(C)CCCN(CCC(=O)OCCSSCCCCCCC(C)C)CCC(=O)OCCSSCCCCCCC(C)C)CCC(=O)OCCSSCCCCCCC(C)C [Lipid L0642],0.124,186.4 nm,99.9 Ug/ml,84.5%,,,
CCCCCCC(CCCC)COC(=O)OCCOC(=O)CCN(CCCN(CCO)CCCN(CCC(=O)OCCOC(=O)OCC(CCCC)CCCCCC)CCC(=O)OCCOC(=O)OCC(CCCC)CCCCCC)CCC(=O)OCCOC(=O)OCC(CCCC)CCCCCC (stereo not drawn) [Lipid L0665],0.16,107.6 nm,65.8 Ug/ml,97.2%,,,
CCCCCCC(CCCC)COC(=O)OCCOC(=O)CCN(CCCN(CCCNC(=O)OC(C)(C)C)CCCN(CCC(=O)OCCOC(=O)OCC(CCCC)CCCCCC)CCC(=O)OCCOC(=O)OCC(CCCC)CCCCCC)CCC(=O)OCCOC(=O)OCC(CCCC)CCCCCC (stereo not drawn) [Lipid L0668],0.11,134.7 nm,67.1 Ug/ml,97%,,,
CCCCCCC(CCCC)CNC(=O)SCCOC(=O)CCN(CCCN(C)CCCN(CCC(=O)OCCSC(=O)NCC(CCCC)CCCCCC)CCC(=O)OCCSC(=O)NCC(CCCC)CCCCCC)CCC(=O)OCCSC(=O)NCC(CCCC)CCCCCC (stereo not drawn) [Lipid L0550],0.14,121 nm,61.1 Ug/ml,84.3%,,,
CC/C=C\CCCC[Se]CCOC(=O)CCN(CCCN(C)CCCN(CCC(=O)OCC[Se]CCCC/C=C\CC)CCC(=O)OCC[Se]CCCC/C=C\CC)CCC(=O)OCC[Se]CCCC/C=C\CC [Lipid L0825],0.099,118.7 nm,91.2 Ug/ml,62%,,,
CCCCCCC(CCCC)COC(=O)OCCOC(=O)CCN(CCCN(CCCO)CCCN(CCC(=O)OCCOC(=O)OCC(CCCC)CCCCCC)CCC(=O)OCCOC(=O)OCC(CCCC)CCCCCC)CCC(=O)OCCOC(=O)OCC(CCCC)CCCCCC (stereo not drawn) [Lipid L0666],0.26,246.5 nm,71.9 Ug/ml,96.1%,,,

# More lines, main results first:
PDI [1],Size (nm) [1],[mRNA] Ug/ml [2],EE % [2],Structure (SMILES),"delivery of the luciferase mRNA to the liver in vivo (luciferase intensity, IVIS) (female adult BALB/c mice)",luciferase mRNA delivery to the liver compared to ALC-0315 (female adult BALB/c mice; FIGS. 6A-6B),luciferase mRNA delivery compared to SM-102 (female adult BALB/c mice; FIGS. 7A-7B)
0.125,99.86 nm,78.9 Ug/ml,95.1%,CCCCCCC(CCCC)COC(=O)CCOC(=O)CCN(CCC(=O)OCCC(=O)OCC(CCCC)CCCCCC)CCN(C)CCN(CCC(=O)OCCC(=O)OCC(CCCC)CCCCCC)CCC(=O)OCCC(=O)OCC(CCCC)CCCCCC (stereo not drawn) [Lipid L0855],more efficient delivery of the luciferase mRNA to the liver,,more luciferase mRNA delivery than SM-102
0.107,183 nm,96.7 Ug/ml,84%,CC(C)CCCCCCCCSSCCOC(=O)CCN(CCCN(C)CCCN(CCC(=O)OCCSSCCCCCCCCC(C)C)CCC(=O)OCCSSCCCCCCCCC(C)C)CCC(=O)OCCSSCCCCCCCCC(C)C [Lipid L0813],,,
0.118,97 nm,74 Ug/ml,95.5%,CCCCCCC(CCCC)COC(=O)NCCNC(=O)CCN(CCCN(C)CCCN(CCC(=O)OCCNC(=O)OCC(CCCC)CCCCCC)CCC(=O)OCCNC(=O)OCC(CCCC)CCCCCC)CCC(=O)NCCNC(=O)OCC(CCCC)CCCCCC (stereo not drawn) [Lipid L0744],,,
0.082,141 nm,95.2 Ug/ml,39%,CCCC/C=C\CCOC(=O)CCN(CCCN(C)CCCN(CCC(=O)OCC/C=C\CCCC)CCC(=O)OCC/C=C\CCCC)CCC(=O)OCC/C=C\CCCC [Lipid L0826],,,
0.089,135.3 nm,95.3 Ug/ml,98.7%,CCCCCCC(CCCC)COC(=O)OCCOC(=O)CCN(CCCN(CCCNC(=S)NC)CCCN(CCC(=O)OCCOC(=O)OCC(CCCC)CCCCCC)CCC(=O)OCCOC(=O)OCC(CCCC)CCCCCC)CCC(=O)OCCOC(=O)OCC(CCCC)CCCCCC (stereo not drawn) [Lipid L0773],,,
0.105,125.1 nm,91 Ug/ml,48%,CC/C=C\CCCCOC(=O)CCN(CCCN(C)CCCN(CCC(=O)OCCOC(=O)OCC(CCCC)CCCCCC)CCC(=O)OCCOC(=O)OCC(CCCC)CCCCCC)CCC(=O)OCCOC(=O)OCC(CCCC)CCCCCC (stereo not drawn) [Lipid L0830],,,
0.13,98.3 nm,78 Ug/ml,92%,CC/C=C\CCCCOC(=O)CCN(CCCN(C)CCCN(CCC(=O)OCCCC/C=C\CC)CCC(=O)OCCOC(=O)OCC(CCCC)CCCCCC)CCC(=O)OCCCC/C=C\CC (stereo not drawn) [Lipid L0829],,,
0.12,95.98 nm,93.4 Ug/ml,68%,CCCCC/C=C\CCCOC(=O)CCN(CCCN(C)CCCN(CCC(=O)OCCC/C=C\CCCCC)CCC(=O)OCCC/C=C\CCCCC)CCC(=O)OCCC/C=C\CCCCC [Lipid L0824],,,
